Laboratory results published in patent US11690824B2, “Antibacterial compounds” (THE GENERAL HOSPITAL CORPORATION, priority 2018, dated 2023).
Values after ≈ are worked out from the molar mass of the structure shown. Where two headings read alike, the source gives them in different places.

How the values were obtained:
S. aureus (MRSA) MW2 = test: Minimal inhibitory concentration (MIC) assay, micro-dilution; type: cell-based; conditions: for MIC: Example 5, MRSA MW2
Source text: Bacterial strains, growth conditions, and persister isolation. Methicillin-resistant S. aureus strains, MW2 BAA-1707, ATCC 33591, and JE2, methicillin-susceptible S. aureus strains, NCTC 8325, Newman, and ATCC 29213, vancomycin-resistant S. aureus strain, VRS1, Enterococcus faecium E007, vancomycin-resistant E. faecium strains, C68,^7 WB312, and WC196, Klebsiella pneumoniae WGLW2 (BEI Resources, Manassas, Va., USA), Acinetobacter baumannii ATCC 17978, Pseudomonas aeruginosa PA14, and Enterobacter aerogenes ATCC 13048 were used to test antimicrobial activity (Table 1). S. aureus strains were grown in tryptic soy broth (TSB) (BD, Franklin Lakes, N.J., USA), and E. faecium was grown in brain-heart infusion (BHI) broth (BD, Franklin Lakes, N.J., USA) at 37° C. K. pneumoniae, A. baumannii, P. aeruginosa, and E. aerogenes were grown in Luria Bertani (LB) broth (BD, Franklin Lakes, N.J., USA) at 37° C.
Minimal inhibitory concentration (MIC) assay. The MICS of antibiotics were determined by the standard micro-dilution method recommended by the Clinical and Laboratory Standards Institute. MIC assays were conducted in biological triplicate.

human erythrocytes = test: Human blood hemolysis; type: cell-based; conditions: 32 μg/ml
Experimental: Human blood hemolysis. Hemolytic activity was evaluated as described in a previous study. Briefly, 100 μL of 4% human erythrocytes (Rockland Immunochemicals, Limerick, Pa., USA) was added to 100 μL of 2-fold serial dilutions of compounds in PBS, 0.2% DMSO (negative control), or 2% Triton-X 100 (positive control) in a 96-well plate. The 96-well plate was incubated at 37° C. for 1 h and then centrifuged at 500× g for 5 min. 50 μL of the supernatant was transferred to a fresh 96-well plate, and absorbance of supernatants was measured at 540 nm. Percent hemolysis was calculated using the following equation: (A540 nm of compound treated sample−A540 nm of 0.1% DMSO treated sample)/(A540 nm of 1% Triton X-100 treated sample−A540 nm of 0.1% DMSO treated sample)×100. HC50 (concentration of a compound causing 50% hemolysis) was determined using SigmaPlot 10.0 (Systat Software Inc., San Jose, Calif., USA).

HKC-8 = test: Cytotoxicity (WST-1); type: cell-based; conditions: 32 μg/ml
Experimental: (§1) Cytotoxicity. […] HepG2 and HKC-8 cells were grown in Dulbecco's modified Eagle F-12 media mixed 1:1 with Ham's F-12 (DMEM/F-12, Life Technologies, Carlsbad, Calif., USA) supplemented with 10% FBS and 4 mM L-glutamine at 37° C. in 5% CO2. For cytotoxicity assays, HepG2 or HKC-8 was cultured in 96-well plates in 100 μL/well of the proper media to reach 70-80% confluence. The cells were then treated with a range of concentrations of nTZDpa or its analogs for 72 h. 10 μL of WST-1 (Roche, Mannheim, Germany) was added per well for the last 4 h of the 72 h period. WST-1 reduction was measured at absorbance 450 nm. The percent […] relative to that of the no-treatment control was calculated. The assay was carried out in biological triplicate.

HepG2 = test: Cytotoxicity (WST-1); type: cell-based; conditions: 32 μg/ml
Experimental: as §1

MRSA MW2 = test: SYTOX Green membrane permeability assay; type: cell-based, S. aureus
Experimental: SYTOX Green membrane permeability assay. […] The washed cells were adjusted to OD600=0.4 with PBS. SYTOX Green (Molecular Probes, Waltham, Mass., USA) was added to 10 mL of the diluted bacterial suspension to a final concentration of 5 μM and incubated for 30 min at room temperature in the dark. 50 μL of the bacteria/SYTOX Green suspension was mixed with 50 μl of PBS containing twice the desired concentrations of compounds in black, clear-bottom, 96-well plates (Corning no. 3904). Fluorescence was measured at room temperature using a spectrophotometer (SpectraMax M2, Molecular Devices), with excitation and emission wavelengths of 485 nm and 525 nm, respectively. All experiments were conducted in biological triplicate.

| MIC (S. aureus (MRSA) MW2) | MIC (S. aureus (MRSA) MW2; Staphylococcus aureus, read-out: MIC) [µg/mL] | Structure (SMILES) | hemolysis of human erythrocytes (human erythrocytes) | cell death of HKC-8 (HKC-8) | cell death of HepG2 (HepG2) | antibiotic activity / potency relative to nTZDpa (S. aureus (MRSA) MW2; growing S. aureus cells) | concentration inducing SYTOX Green fluorescence (MRSA MW2) [µg/mL] |
| --- | --- | --- | --- | --- | --- | --- | --- |
| same MIC |  | O=C(O)c1c(Sc2ccccc2)c2ccc(Cl)cc2n1Cc1ccc(Cl)cc1 [Analog 2a] | did not significantly cause hemolysis | did not display a significant level of cytotoxicity | did not display a significant level of cytotoxicity |  |  |
|  | 32 (≈ 91.4 µM) | COc1c(C(=O)O)n(Cc2ccc(Cl)cc2)c2ccc(Cl)cc12 [Compound S14, 5-chloro-1-(4-chlorobenzyl)-3-methoxy-1H-indole-2-carboxylic acid] |  |  |  | reduction of antibiotic activity | 64 |
